In the test the test system is L1210 leukemia ip in BDF1 mice, survival T/C. As to the kind of experiment: NCI In Vivo Anticancer Drug Screen. Data for tumor model L1210 Leukemia (intraperitoneal) in B6D2F1 (BDF1) mice. To be noted: endpoint: mean survival time, higher = longer survival. The gist of the method:
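Ratio derived from survival: compound-dosed mice over vehicle-dosed mice, all bearing a transplantable tumor.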

Setting [1] is: dose: 25.0 mg/kg/injection, schedule: Q04DX003 (ip), vehicle: saline with Tween-80.
The mark [2] stands for this setting: dose: 50.0 mg/kg/injection, schedule: Q04DX003 (ip), vehicle: saline with Tween-80.
Where [3] appears, read: dose: 100.0 mg/kg/injection, schedule: Q04DX003 (ip), vehicle: saline with Tween-80.
Setting [4] is: dose: 100.0 mg/kg/injection, schedule: Q01DX001 (ip), vehicle: saline with Tween-80.
Setting [5] is: dose: 200.0 mg/kg/injection, schedule: Q01DX001 (ip), vehicle: saline with Tween-80.
The mark [6] stands for this setting: dose: 400.0 mg/kg/injection, schedule: Q01DX001 (ip), vehicle: saline with Tween-80.
Setting [7] is: dose: 200.0 mg/kg/injection, schedule: Q04DX003 (ip), vehicle: saline with Tween-80.
Where [8] appears, read: dose: 400.0 mg/kg/injection, schedule: Q04DX003 (ip), vehicle: saline with Tween-80.
The mark [9] stands for this setting: dose: 100.0 mg/kg/injection, schedule: Q04DX003 (ip), vehicle: Klucel (hydroxypropylcellulose) (HPC).
[10] abbreviates: dose: 200.0 mg/kg/injection, schedule: Q04DX003 (ip), vehicle: Klucel (hydroxypropylcellulose) (HPC).
The mark [11] stands for this setting: dose: 400.0 mg/kg/injection, schedule: Q04DX003 (ip), vehicle: Klucel (hydroxypropylcellulose) (HPC).
The mark [12] stands for this setting: dose: 100.0 mg/kg/injection, schedule: Q01DX009 (ip), vehicle: saline with Tween-80.
Setting [13] is: dose: 100.0 mg/kg/injection, schedule: Q04DX002 (ip), vehicle: saline with Tween-80.
[14] abbreviates: dose: 200.0 mg/kg/injection, schedule: Q04DX002 (ip), vehicle: saline with Tween-80.

“And” between values parts separate entries of the source, which are not always exact repeats. Equal entries are not always repeated. Inconclusive results and toxic doses are left out.

On to `CCNC1=C(N2CC2)C(=O)C(NCC)=C(N2CC2)C1=O`, for which the T/C is, setting by setting: (dose: 0.04 mg/kg/injection, schedule: Q01DX009 (ip), vehicle: saline) 95 % of control and 102 % of control; (dose: 0.09 mg/kg/injection, schedule: Q01DX009 (ip), vehicle: saline) 102 % of control and 111 % of control; (dose: 0.09 mg/kg/injection, schedule: Q04DX003 (ip), vehicle: saline) 100 % of control and 122 % of control; (dose: 0.18 mg/kg/injection, schedule: Q01DX009 (ip), vehicle: saline) 108 % of control and 120 % of control; (dose: 0.18 mg/kg/injection, schedule: Q04DX003 (ip), vehicle: saline) 104 % of control and 113 % of control; (dose: 0.37 mg/kg/injection, schedule: Q01DX009 (ip), vehicle: saline) 168 % of control. For the same molecule, the T/C is, setting by setting: (dose: 0.37 mg/kg/injection, schedule: Q04DX003 (ip), vehicle: saline) 113 % of control and 114 % of control; (dose: 0.75 mg/kg/injection, schedule: Q01DX001 (ip), vehicle: saline) 120 % of control; (dose: 0.75 mg/kg/injection, schedule: Q01DX009 (ip), vehicle: saline) 151 % of control; (dose: 0.75 mg/kg/injection, schedule: Q04DX003 (ip), vehicle: saline) 120 % of control and 124 % of control; (dose: 1.5 mg/kg/injection, schedule: Q01DX001 (ip), vehicle: saline) 168 % of control; (dose: 1.5 mg/kg/injection, schedule: Q01DX009 (ip), vehicle: saline) 191 % of control and 212 % of control. The T/C (dose: 1.5 mg/kg/injection, schedule: Q04DX003 (ip), vehicle: saline) was 157 % of control; the T/C (dose: 3.0 mg/kg/injection, schedule: Q01DX001 (ip), vehicle: saline) is 157 % of control; the T/C (dose: 3.0 mg/kg/injection, schedule: Q01DX009 (ip), vehicle: saline) was 93 % of control and 117 % of control; the T/C (dose: 3.0 mg/kg/injection, schedule: Q04DX003 (ip), vehicle: saline) was 175 % of control; the T/C (dose: 3.12 mg/kg/injection, schedule: Q04DX003 (ip), vehicle: saline) is 150 % of control; the T/C (dose: 6.0 mg/kg/injection, schedule: Q04DX003 (ip), vehicle: saline) is 101 % of control. For the setting “dose: 6.25 mg/kg/injection, schedule: Q04DX003 (ip), vehicle: saline”, the T/C is 95 % of control.

For `Cc1cc(=O)[nH]c(NCCCCCC(=O)O)n1`, the T/C was 104 % of control (dose: 25.0 mg/kg/injection, schedule: Q04DX003 (ip), vehicle: saline); 104 % of control (dose: 50.0 mg/kg/injection, schedule: Q04DX003 (ip), vehicle: saline); 101 % of control (dose: 100.0 mg/kg/injection, schedule: Q04DX003 (ip), vehicle: saline).

As for `CCC[CH2][Hg][Cl]`, the T/C (dose: 6.25 mg/kg/injection, schedule: Q01DX009 (ip), vehicle: saline with Tween-80) was 94 % of control; the T/C (dose: 6.25 mg/kg/injection, schedule: Q04DX003 (ip), vehicle: Klucel (hydroxypropylcellulose) (HPC)) was 93 % of control; the T/C (dose: 12.5 mg/kg/injection, schedule: Q01DX009 (ip), vehicle: saline with Tween-80) is 92 % of control; the T/C (dose: 12.5 mg/kg/injection, schedule: Q04DX003 (ip), vehicle: Klucel (hydroxypropylcellulose) (HPC)) was 92 % of control; the T/C (dose: 25.0 mg/kg/injection, schedule: Q04DX003 (ip), vehicle: Klucel (hydroxypropylcellulose) (HPC)) was 88 % of control.

In the case of `CC(=O)CC(Br)CBr` (stereo not drawn), the T/C by setting is: under setting [1], 91 % of control; under setting [2], 98 % of control; under setting [3], 100 % of control.

`COc1ccc(/C=C2/Oc3cc(O)ccc3C2=O)cc1`: the T/C under setting [4] was 90 % of control, the T/C under setting [5] was 93 % of control and the T/C under setting [6] was 86 % of control.

As to `COc1cc(Oc2cc(OC)c(OC)c(OC)c2)cc(OC)c1OC`, the T/C under setting [3] was 97 % of control, the T/C under setting [7] is 101 % of control and the T/C under setting [8] was 97 % of control.

For the molecule `O=C(O)CSCc1ccc([N+](=O)[O-])cc1`, the T/C reads like this: under setting [9], 100 % of control; under setting [10], 100 % of control; under setting [11], 100 % of control.

For `CCNC(=S)Nc1ccc(Cl)cc1`, the T/C was 93 % of control (dose: 25.0 mg/kg/injection, schedule: Q01DX009 (ip), vehicle: saline with Tween-80); 95 % of control (dose: 50.0 mg/kg/injection, schedule: Q01DX009 (ip), vehicle: saline with Tween-80); 97 % of control under setting [12]; 104 % of control under setting [3].

Consider `CC(C)NC(=O)Oc1cccc(NC(=O)C(C)C)c1`, for which the T/C under setting [1] was 101 % of control; the T/C under setting [2] is 92 % of control; the T/C under setting [3] is 92 % of control and 95 % of control; the T/C under setting [8] is 89 % of control.

In the case of `CC12CCC(O)CC1=CC=C1C2CCC2(C)C(OC(=O)c3ccccc3)CCC12` (stereo not drawn), the T/C is 91 % of control under setting [4], 93 % of control under setting [5] and 98 % of control under setting [6].

With `OC(c1ccc(Br)cc1)C(O)c1ccc(Br)cc1` (stereo not drawn), the T/C reads like this: (dose: 50.0 mg/kg/injection, schedule: Q04DX002 (ip), vehicle: saline with Tween-80) 104 % of control; under setting [13], 104 % of control; under setting [14], 97 % of control.

For `O=C(CCCC(=O)N1CCOCC1)N1CCOCC1`, the T/C under setting [9] was 108 % of control, the T/C under setting [10] is 103 % of control and the T/C under setting [11] is 101 % of control.

On to `CC(I)CNc1ccc(C(=O)O)c(O)c1` (stereo not drawn), for which the T/C (dose: 100.0 mg/kg/injection, schedule: Q04DX003 (ip), vehicle: gum acacia) was 97 % of control; the T/C (dose: 200.0 mg/kg/injection, schedule: Q04DX003 (ip), vehicle: gum acacia) is 89 % of control; the T/C (dose: 400.0 mg/kg/injection, schedule: Q04DX003 (ip), vehicle: gum acacia) is 94 % of control.

Take `O=C(O)c1c(Cl)c(Cl)c(Cl)c(Cl)c1C(=O)O.O=C(O)c1c(Cl)c(Cl)c(Cl)c(Cl)c1C(=O)O.[Pt]`: the T/C (dose: 100.0 mg/kg/injection, schedule: Q04DX003 (ip), vehicle: saline sonified) was 105 % of control.

Regarding `O=C(Nc1c(Oc2ccc(Cl)c(Cl)c2)ccc(Cl)c1S(=O)(=O)O)Nc1c(Oc2ccc(Cl)c(Cl)c2)ccc(Cl)c1S(=O)(=O)O`, the T/C is, setting by setting: (dose: 75.0 mg/kg/injection, schedule: Q01DX001 (ip), vehicle: saline) 101 % of control; (dose: 150.0 mg/kg/injection, schedule: Q01DX001 (ip), vehicle: saline) 99 % of control; (dose: 300.0 mg/kg/injection, schedule: Q01DX001 (ip), vehicle: saline) 96 % of control.

Turning to `N#Cc1c[nH]n2c(=S)ncnc12`, the T/C reads like this: under setting [12], 105 % of control; (dose: 200.0 mg/kg/injection, schedule: Q01DX009 (ip), vehicle: saline with Tween-80) 101 % of control.

Regarding `CN(C)C(=O)Nc1cccc(OC(=O)NC2CC2)c1`, the T/C is 96 % of control under setting [3], 95 % of control under setting [7] and 90 % of control under setting [8].

Consider `O=C(O)CC(NCc1ccccc1)C1CCCCC1` (stereo not drawn), for which the T/C was 95 % of control (dose: 100.0 mg/kg/injection, schedule: Q01DX001 (ip), vehicle: Klucel (hydroxypropylcellulose) (HPC)); 101 % of control (dose: 200.0 mg/kg/injection, schedule: Q01DX001 (ip), vehicle: Klucel (hydroxypropylcellulose) (HPC)); 98 % of control (dose: 400.0 mg/kg/injection, schedule: Q01DX001 (ip), vehicle: Klucel (hydroxypropylcellulose) (HPC)).

In the case of `OC1C2CCC(C2)C1C(O)(C(F)(F)Cl)C(F)(F)Cl` (stereo not drawn), the T/C runs as follows: under setting [3], 93 % of control; under setting [7], 92 % of control; under setting [8], 97 % of control.

As for `COC(=O)c1c(OC)ccc2c1CC1C3Nc4ccccc4C3CCN1C2` (stereo not drawn), the T/C by setting is: under setting [9], 94 % of control; under setting [10], 90 % of control; under setting [11], 90 % of control.

For the molecule `COc1ccc(C2Nc3ccccc3NC3CC(C)(C)CC(=O)C32)cc1` (stereo not drawn), the T/C is 120 % of control (dose: 100.0 mg/kg/injection, schedule: Q04DX002 (ip), vehicle: Klucel (hydroxypropylcellulose) (HPC)); 98 % of control (dose: 200.0 mg/kg/injection, schedule: Q04DX002 (ip), vehicle: Klucel (hydroxypropylcellulose) (HPC)); 109 % of control (dose: 400.0 mg/kg/injection, schedule: Q04DX002 (ip), vehicle: Klucel (hydroxypropylcellulose) (HPC)).

On to `O=[N+]([O-])c1ccc(OC(=S)N2CCOCC2)cc1`, for which the T/C runs as follows: under setting [13], 104 % of control; under setting [14], 104 % of control; (dose: 400.0 mg/kg/injection, schedule: Q04DX002 (ip), vehicle: saline with Tween-80) 101 % of control.

(Values after PubChem BioAssay AID248 (DTP/NCI, 2004).)
